According to ChEMBL document CHEMBL4715719, “Synthesis and biological properties of polyamine modified flavonoids as hepatocellular carcinoma inhibitors” (Eur J Med Chem, 2016):
pIC50: −log10 of the molar value. Calls of active or inactive are those of the source. The calls are words filed in the database; no cut-off is given here.

What was measured:
[1] = Toxicity in Kunming mouse implanted with mouse H22 cells assessed as mouse mortality during lug metastasis assay at 10 mg/kg, iv administered for 7 consecutive days starting from day 8 post inoculation and measured after 16 days; type: organism-based; conditions: in vivo, 192 h, time 8 day
HepG2 [2] = experiment: Antiinvasive activity against human HepG2 cells assessed as inhibition of cell invasion at 50 to 70 uM measured after 48 hrs in presence of aspirin by wound healing assay; type: functional, cell-based; conditions: dose 50-70 µM
[3] = Antiproliferative activity against mouse H22 cells assessed as inhibition of cell proliferation measured after 48 hrs in presence of 800 uM aspirin by MTT assay; type: functional, cell-based
H22 [4] = experiment: Potentiation of aspirin-induced antimetastatic activity against mouse H22 cells implanted in Kunming mouse assessed as inhibition of metastasis at 10 mg/kg, iv administered for 7 consecutive days starting from day 11 post inoculation cotreated with aspirin at 10 mg/kg and measured after 18 days relative to control; type: functional; conditions: 192 h, time 8 day
[5] = Toxicity in Kunming mouse implanted with mouse H22 cells assessed as change in mouse body weight at 10 mg/kg, iv administered for 7 consecutive days starting from day 8 post inoculation cotreated with aspirin at 10 mg/kg and measured after 16 days (reference value: 16.7 %); type: organism-based; conditions: in vivo, 192 h, time 8 day
HepG2 [6] = experiment: Antimigratory activity against human HepG2 cells assessed as inhibition of cell migration at 50 to 70 uM in presence of aspirin measured after 48 hrs by transwell assay; type: functional, cell-based; conditions: dose 50-70 µM
[7] = Toxicity in Kunming mouse implanted with mouse H22 cells assessed as change in body weight at 10 mg/kg, iv administered for 7 consecutive days starting from day 11 post inoculation and measured after 18 days (reference value: 5.2 %); type: organism-based; conditions: in vivo, 192 h, time 8 day
HepG2 [8] = experiment: Antiproliferative activity against human HepG2 cells assessed as inhibition of cell proliferation measured after 48 hrs in presence of 800 uM aspirin by MTT assay; type: functional, cell-based; conditions: HepG2, 48 h
H22 [9] = experiment: Potentiation of DFMO-induced antimetastatic activity against mouse H22 cells implanted in Kunming mouse assessed as inhibition of metastasis at 10 mg/kg, iv administered for 7 consecutive days starting from day 11 post inoculation cotreated with DFMO at 200 mg/kg and measured after 18 days relative to control; type: functional; conditions: 192 h, time 8 day
HepG2 [10] = experiment: Induction of apoptosis in human HepG2 cells after 48 hrs by AO/EB staining based assay; type: functional, cell-based; conditions: dose 50-70 µM
HepG2 [11] = experiment: Antiproliferative activity against human HepG2 cells assessed as inhibition of cell proliferation at 30 uM measured after 48 hrs by MTT assay relative to control; type: functional
[12] = Antiproliferative activity against mouse H22 cells assessed as inhibition of cell proliferation measured after 48 hrs by MTT assay; type: functional, cell-based
H22 [13] = experiment: Antimetastatic activity against mouse H22 cells implanted in Kunming mouse assessed as number of metastatic focus at 10 mg/kg, iv administered for 7 consecutive days starting from day 11 post inoculation and measured after 18 days (reference value: 5.73 +/- 14.6); type: functional; conditions: time 8 day
HepG2 [14] = experiment: Induction of ROS generation in human HepG2 cells after 48 hrs by DCFH-DA staining based assay; type: functional, cell-based; conditions: dose 50-70 µM
[15] = Toxicity in Kunming mouse implanted with mouse H22 cells assessed as mouse mortality at 10 mg/kg, iv administered for 7 consecutive days starting from day 8 post inoculation cotreated with aspirin at 10 mg/kg and measured after 16 days; type: organism-based; conditions: in vivo, 192 h, time 8 day
H22 [16] = experiment: Potentiation of DFMO-induced antimetastatic activity against mouse H22 cells implanted in Kunming mouse assessed as number of metastatic focus at 10 mg/kg, iv administered for 7 consecutive days starting from day 11 post inoculation cotreated with DFMO at 200 mg/kg and measured after 18 days (reference value: 35.1 +/- 12); type: functional; conditions: time 8 day
[17] = Cytotoxicity against human QSG7701 cells assessed as inhibition of cell proliferation at 30 uM measured after 48 hrs by MTT assay relative to control; type: cell-based
[18] = Toxicity in Kunming mouse implanted with mouse H22 cells assessed as change in body weight at 10 mg/kg, iv administered for 7 consecutive days starting from day 11 post inoculation cotreated with DFMO at 200 mg/kg and measured after 18 days (reference value: -0.3 %); type: organism-based; conditions: in vivo, 192 h, time 8 day
HepG2 [19] = experiment: Antimigratory activity against human HepG2 cells assessed as inhibition of cell migration measured after 48 hrs by transwell assay; type: functional, cell-based; conditions: dose 50-70 µM
Mus musculus [20] = experiment: Downregulation of Bcl-2 in Kunming mouse implanted with mouse H22 cells at 10 to 30 uM measured after 48 hrs by immunofluorescence analysis; type: functional; conditions: dose 10-30 µM
HepG2 [21] = experiment: Induction of apoptosis in human HepG2 cells assessed as upregulation of phosphorylated p38 at 50 to 70 uM measured after 48 hrs by immunofluorescence assay; type: functional, cell-based; conditions: dose 50-70 µM
SMMC-7721 = experiment: Antiproliferative activity against human […] cells assessed as inhibition of cell proliferation at 30 uM measured after 48 hrs by MTT assay relative to control; type: functional
HepG2 [22] = experiment: Induction of mitochondrial membrane potential loss in human HepG2 cells after 48 hrs by Rh123 staining based assay; type: functional, cell-based; conditions: dose 50-70 µM
H22 [23] = experiment: Potentiation of DFMO-induced antitumor activity against mouse H22 cells implanted in Kunming mouse assessed as reduction in tumor weight at 10 mg/kg, iv administered for 7 consecutive days starting from day 8 post inoculation cotreated with DFMO at 200 mg/kg and measured after 16 days (reference value: 1.31 +/- 0.33 g); type: functional; conditions: time 8 day
H22 [24] = experiment: Potentiation of aspirin-induced antimetastatic activity against mouse H22 cells implanted in Kunming mouse assessed as number of metastatic focus at 10 mg/kg, iv administered for 7 consecutive days starting from day 11 post inoculation cotreated with aspirin at 10 mg/kg and measured after 18 days (reference value: 43.6 +/- 13); type: functional; conditions: time 8 day
Mus musculus [25] = experiment: Upregulation of phosphorylated p38 in Kunming mouse implanted with mouse H22 cells assessed as activation of p53 measured after 48 hrs by immunofluorescence analysis; type: functional; conditions: dose 10-30 µM
[26] = Toxicity in iv dosed Kunming mouse assessed as maximum tolerated dose; type: organism-based; conditions: in vivo
H22 [27] = experiment: Antitumor activity against mouse H22 cells implanted in Kunming mouse assessed as tumor growth inhibition at 10 mg/kg, iv administered for 7 consecutive days starting from day 8 post inoculation and measured after 16 days relative to control; type: functional; conditions: 192 h, time 8 day, read-out: TGI
H22 [28] = experiment: Potentiation of DFMO-induced antitumor activity against mouse H22 cells implanted in Kunming mouse assessed as tumor growth inhibition at 10 mg/kg, iv administered for 7 consecutive days starting from day 8 post inoculation cotreated with DFMO at 200 mg/kg and measured after 16 days (reference value: 38.8 %); type: functional; conditions: 192 h, time 8 day, read-out: TGI
H22 [29] = experiment: Potentiation of aspirin-induced antitumor activity against mouse H22 cells implanted in Kunming mouse assessed as reduction in tumor weight at 10 mg/kg, iv administered for 7 consecutive days starting from day 8 post inoculation cotreated with aspirin at 10 mg/kg and measured after 16 days (reference value: 1.37 +/- 0.60 g); type: functional; conditions: time 8 day
HepG2 [30] = experiment: Induction of apoptosis in human HepG2 cells assessed as activation of caspase 8 at 50 to 70 uM measured after 48 hrs by immunofluorescence assay; type: functional, cell-based; conditions: dose 50-70 µM
[31] = Toxicity in Kunming mouse implanted with mouse H22 cells assessed as change in mouse body weight at 10 mg/kg, iv administered for 7 consecutive days starting from day 8 post inoculation and measured after 16 days (reference value: 21 %); type: organism-based; conditions: in vivo, 192 h, time 8 day

For `Cl.Cl.NCCCNCC(=O)NCc1cccc2c(=O)cc(-c3cccc4ccccc34)oc12`, the Activity [1] was “Non-Toxic”, the inhibition (HepG2 [2]) was “Active” and the pIC50 [3] was 4.68. For the same compound, the inhibition in vivo at 10 mg/kg (H22 [4]) was 59.9%, the Activity [5] was 19.4% and the inhibition (HepG2 [6]) was “Active”. The Activity [7] was 3.7%, the pIC50 (HepG2 [8]) was 4.23 and the inhibition in vivo at 10 mg/kg (H22 [9]) was 48.9%. The Activity (HepG2 [10]) was “Dose-dependent effect”, the inhibition at 30 µM (HepG2 [11]) was 7.9% and the pIC50 [12] was 4.49. The Activity (H22 [13]) was 40.5, the Activity (HepG2 [14]) was “Dose-dependent effect” and the Activity [15] was “Non-Toxic”. For the same compound, the Activity (H22 [16]) was 29.3, the inhibition at 48 h, 30 µM [17] was under 5% and the Activity [18] was 1.2%. For the same compound, the inhibition (HepG2 [19]) was “Dose-dependent effect”, the Activity (Mus musculus [20]) was “Active” and the Activity (HepG2 [21]) was “Active”. The inhibition at 30 µM (SMMC-7721) was 5.1%, the Activity (HepG2 [22]) was “Dose-dependent effect” and the Activity (H22 [23]) was 1.22 g. The Activity (H22 [24]) was 23, the Activity (Mus musculus [25]) was “Dose-dependent effect” and the MTD [26] was 20 mg/kg. It also gave an inhibition in vivo at 10 mg/kg (H22 [27]) of 39.2%, an inhibition in vivo at 10 mg/kg (H22 [28]) of 43% and an Activity (H22 [29]) of 0.66 g. The Activity (HepG2 [30]) was “inactive” and the Activity [31] was 4%.
